Source: US20240115557A1, “INHIBITORS OF RNA-GUIDED NUCLEASES AND USES THEREOF” (The Brigham and Women's Hospital, Inc., priority 2022, published 2024)
Numbered stars: 1 amine (or outer) side, 2 acyl side, 3 side chain; on linkers, the order of the positions; unused ones are H or OH. Bridge positions count the residues as written; N and C are the ends. Square brackets hold non-standard residues; d marks the D form. Peptide text beside a SMILES is read from it. I, II: the chains in the order shown. Actinocin(9to1) = Cc1c2oc3c(C)ccc(C(=O)[*:1])c3nc-2c(C(=O)[*:2])c(N)c1=O; NMeV = CN[C@H](C(=O)O)C(C)C; Sar = CNCC(=O)O

Target: SpCas9 (Streptococcus pyogenes serotype M1, UniProt Q99ZW2)
Test: eGFP disruption assay, SpCas9, U2OS.eGFP.PEST cells
Format: cell-based
Settings: for Normalized Z rep1 / Z score Rep1: replicate 1; for SpCas9 eGFP disruption Rep1: replicate 1, raw readout; for Normalized Z rep2 / Z socre Rep2: replicate 2; for SpCas9 eGFP disruption Rep2: replicate 2, raw readout
Description: In some embodiments, the secondary assay may be an EGFP disruption assay. In such assay, a quantitative human cell-based reporter assay that enables rapid quantitation of targeted nuclease activities is used to characterize off-target cleavage of Cas9-based RNA guided endonucleases. In this assay, the activities of nucleases targeted to a single integrated EGFP reporter gene can be quantified by assessing loss of fluorescence signal in human U2OS.EGFP cells caused by inactivating frameshift insertion/deletion (indel) mutations introduced by error prone non-homologous end-joining (NHEJ) repair of nuclease-induced double-stranded breaks (DSBs).
In one protocol, U2OS.EGFP cells harboring a single integrated copy of an EGFP-PEST fusion gene are cultured (see e.g., Reyon et al., Nat Biotech 30, 460-465 (2012), which is herein incorporated by reference in its entirety). For transfections, 200,000 cells are Nucleofected with gRNA expression plasmid and pJDS246 together with 30 ng of a Td-tomato-encoding plasmid using the SE Cell Line 4D-Nucleofector™ X Kit (Lonza) according to the manufacturer's protocol. Cells are analyzed 2 days post-transfection using a BD LSRII flow cytometer. Transfections for optimizing gRNA/Cas9 plasmid concentration are performed in triplicate and all other transfections are performed in duplicate. PCR amplification is used for sequence verification of endogenous human genomic sites. PCR reactions are performed using Phusion Hot Start II high-fidelity DNA polymerase (NEB). Loci are amplified using touchdown PCR (98° C., 10 s; 72-62° C., −1° C./cycle, 15s; 72° C., 30 s] 10 cycles, [98° C., 10s; 62° C., 15s; 72° C., 30 s] 25 cycles). Alternatively, PCR for other targets is performed with 35 cycles at a constant annealing temperature of 68° C. or 72° C., and 3% DMSO or IM betaine, if necessary. PCR products are analyzed on a QIAXCEL capillary electrophoresis system to verify both size and purity. Validated products are treated with ExoSap-IT (Affymetrix) and sequenced by the Sanger method (MGH DNA Sequencing Core) to verify each target site.
Primary and secondary screening. The primary screen assayed a selection of unique chemical scaffolds derived from commercially available compounds and known bioactive molecular libraries (Table 7). Auto-fluorescent compounds were removed by a counter screen. Overall, the CAA was used to assay 122,409 small molecules with over 2,500 unique chemical scaffolds (FIG. 64F, Table 7). Of these compounds, 547 were selected as hits (Z score >3 in both replicates) for testing in orthogonal cell-based secondary assays. Hits were tested in duplicate in an eGFP disruption assay, wherein U2OS.eGFP.PEST cells^33 transfected with SpCas9 plasmid and eGFP-targeting gRNA plasmid were incubated with 20 μM of the compounds. In this assay, any compound that inhibited SpCas9 would rescue the loss of eGFP fluorescence. Here, toxic and auto-fluorescent compounds with a high GFP signal in cells were removed as false positives. […] Next, Applicants tested the 15 compounds in a luminescence-based gain-of-signal HiBiT knock-in assay, which involves SpCas9-mediated homology-directed tagging of GAPDH with a short peptide that luminesces upon complementation with a subunit derived from nanoluciferase.^34 Complementarily, the eGFP-disruption assay is fluorescence-based and involves error-prone DNA repair. As a counter-screen to remove false positives caused by cell death (viability <80%), the cell viability was measured after incubation.
For SAR studies and dose-response studies, 300,000 U2OS.eGFP.PEST cells were nucleofected with 300 ng of SpCas9 plasmid (Addgene #43861) and 30 ng of eGFP-targeting gRNA plasmid (Addgene #47511)^33 using SE Cell Line 4D-Nucleofector X Kit (Lonza) following the pulse program of DN-100. For RNP-based genome editing, 10 pmol of SpCas9 (GenScript #Z03385) and 12 pmol of gRNA were mixed and incubated for 5 min. […]

SpCas9, sequence (Q99ZW2 whole entry): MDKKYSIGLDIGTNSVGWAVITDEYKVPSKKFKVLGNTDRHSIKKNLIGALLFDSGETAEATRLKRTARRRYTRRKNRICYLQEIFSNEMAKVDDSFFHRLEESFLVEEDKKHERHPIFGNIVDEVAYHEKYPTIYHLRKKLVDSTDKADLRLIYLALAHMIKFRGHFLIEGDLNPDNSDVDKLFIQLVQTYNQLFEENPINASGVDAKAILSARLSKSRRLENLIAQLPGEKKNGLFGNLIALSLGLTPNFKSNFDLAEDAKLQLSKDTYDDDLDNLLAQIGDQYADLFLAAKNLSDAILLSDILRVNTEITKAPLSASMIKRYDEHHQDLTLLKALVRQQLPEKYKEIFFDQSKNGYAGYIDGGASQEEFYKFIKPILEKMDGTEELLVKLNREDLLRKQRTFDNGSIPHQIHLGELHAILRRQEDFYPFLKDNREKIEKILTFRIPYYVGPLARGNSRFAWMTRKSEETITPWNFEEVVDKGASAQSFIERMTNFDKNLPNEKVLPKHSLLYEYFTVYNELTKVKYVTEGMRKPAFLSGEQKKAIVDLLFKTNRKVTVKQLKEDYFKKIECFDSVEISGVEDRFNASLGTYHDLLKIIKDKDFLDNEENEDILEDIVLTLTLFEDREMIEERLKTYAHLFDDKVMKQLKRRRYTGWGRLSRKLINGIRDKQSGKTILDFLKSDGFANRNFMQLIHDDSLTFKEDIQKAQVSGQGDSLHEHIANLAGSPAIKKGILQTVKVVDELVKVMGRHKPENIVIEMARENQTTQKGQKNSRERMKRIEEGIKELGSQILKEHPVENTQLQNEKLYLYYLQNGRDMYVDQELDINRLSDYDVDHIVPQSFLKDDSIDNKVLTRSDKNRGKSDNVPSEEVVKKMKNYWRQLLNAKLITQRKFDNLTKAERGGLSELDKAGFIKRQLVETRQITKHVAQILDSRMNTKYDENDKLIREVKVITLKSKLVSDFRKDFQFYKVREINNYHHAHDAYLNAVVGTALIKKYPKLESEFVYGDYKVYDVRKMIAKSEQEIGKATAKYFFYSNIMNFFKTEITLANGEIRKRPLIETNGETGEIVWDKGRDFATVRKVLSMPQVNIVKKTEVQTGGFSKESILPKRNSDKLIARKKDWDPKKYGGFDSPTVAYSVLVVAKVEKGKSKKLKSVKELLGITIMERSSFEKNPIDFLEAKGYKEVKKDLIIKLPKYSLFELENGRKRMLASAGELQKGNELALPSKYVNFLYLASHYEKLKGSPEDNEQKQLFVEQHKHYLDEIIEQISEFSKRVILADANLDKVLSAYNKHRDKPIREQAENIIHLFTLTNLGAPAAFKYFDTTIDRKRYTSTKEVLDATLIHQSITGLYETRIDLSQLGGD

Row | SMILES | Normalized Z rep1 | Z score Rep1 | SpCas9 eGFP disruption Rep1 | Normalized Z rep2 | Z socre Rep2 | SpCas9 eGFP disruption Rep2
1 | Fc1ccc(-c2nn3c(-c4cnccn4)nnc3s2)cc1Br [Compound D727-0884] | −0.16 | −1.16 | 63.178 | −0.23 | −2.10 | 56.742
2 | Clc1cccc(-c2nnc3sc(-c4ccc5ccccc5n4)nn23)c1 [Compound D727-0890] | −0.17 | −1.24 | 62.913 | −0.22 | −2.01 | 57.037
3 | Fc1cccc(-c2nnc3sc(-c4ccc5ccccc5n4)nn23)c1 [Compound D727-0892] | −0.28 | −2.03 | 60.296 | −0.34 | −3.13 | 53.657
4 | NC(=O)c1sc(=S)n2c1[nH]c(=O)c1cc(Cl)ccc12 [Compound F083-0005] | −0.23 | −1.66 | 61.541 | −0.12 | −1.09 | 59.801
5 | O=C(NCC1CCCO1)c1sc(=S)n2c1[nH]c(=O)c1cc3c(cc12)OCO3 (stereo not drawn) [Compound F083-0416] | −0.32 | −2.28 | 59.472 | −0.05 | −0.49 | 61.595
6 | CCCCNC(=O)CN1CCN(c2ccc(C(=O)O)cc2NC(=O)c2ccccc2Cl)CC1 [Compound F086-0029] | −0.30 | −2.20 | 59.751 | −0.05 | −0.46 | 61.703
7 | CCCCN(CC)C(=O)C1CCCN(c2ccc(-c3ccccc3C)nn2)C1 (stereo not drawn) [Compound F305-0129] | −0.32 | −2.35 | 59.262 | −0.38 | −3.50 | 52.541
8 | Cc1cc(Sc2ccccc2NC(=O)c2cccc(F)c2)n2ncnc2n1 [Compound F518-0008] | −0.22 | −2.00 | 59.029 | −0.20 | −3.02 | 61.293
9 | Cc1cccc(C(=O)Nc2ccccc2Sc2cc(C)nc3ncnn23)c1 [Compound F518-0014] | −0.36 | −3.28 | 55.407 | −0.34 | −5.07 | 57.92
10 | CCC(=O)Nc1ccccc1Sc1cc(C)nc2ncnn12 [Compound F518-0049] | −0.09 | −0.86 | 62.276 | −0.23 | −3.42 | 60.623
11 | O=C(O)c1cc(N2CCCC2)ccc1NC(=O)C1CCCC1 [Compound F685-1588] | −0.26 | −2.44 | 57.803 | −0.23 | −3.36 | 60.73
12 | COc1ccc(S(=O)(=O)CCC(=O)Nc2nc(-c3ccncc3)cs2)cc1 [Cpd4] | −0.26 | −3.70 | 48.322 | −0.20 | −4.05 | 47.796
13 | CC(C)(C)OC(=O)NCCOc1ccc(S(=O)(=O)CCC(=O)Nc2nc(-c3ccncc3)cs2)cc1 [Cpd6] | −0.10 | −1.44 | 54.15 | 0.06 | 1.16 | 57.456
14 | N#Cc1[nH]c(=O)n(Cc2ccccc2)c1N [Cpd10] | 0.00 | 0.06 | 58.004 | 0.14 | 2.94 | 60.748
15 | Fc1cccc(-c2nn3c(-c4ccc5ccccc5n4)nnc3s2)c1 [D727-0740] | −0.57 | −4.14 | 53.347 | −0.08 | −0.74 | 60.86
16 | Cc1c2oc3c(C)ccc(C(=O)N[C@@H]4C(=O)N[C@H](C(C)C)C(=O)N5CCC[C@H]5C(=O)N(C)CC(=O)N(C)[C@@H](C(C)C)C(=O)O[C@@H]4C)c3nc-2c(C(=O)N[C@@H]2C(=O)N[C@H](C(C)C)C(=O)N3CCC[C@H]3C(=O)N(C)CC(=O)N(C)[C@@H](C(C)C)C(=O)O[C@@H]2C)c(N)c1=O [SAM001246846] (I: T[dV]P[Sar][NMeV] / II: T[dV]P[Sar][NMeV]; ester I:1-I:C, II:1-II:C; linker I:N-II:N via Actinocin(9to1)) | −2.59 | −16.90 | 26.655 | −2.71 | −26.02 | 24.765
